Reference: US10435361B2, “Kinase inhibitors” (Topivert Pharma Limited, priority 2013, dated 2019)

Legend:
PBMCs [1] = assay: LPS-induced TNFα/IL-8 release in PBMC cells; type: cell-based; conditions: Homo sapiens, assay (b)
Outline: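 Healthy-donor PBMCs isolated by density gradient were pretreated with compound for 2 h, then stimulated with 1 ng/mL LPS (E. coli 0111:B4) for 24 h at 37° C., 5% CO2. IL-8 and TNFα in supernatants measured by sandwich ELISA.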

PBMCs [2] = assay: IL-2 and IFN gamma release in CD3/CD28 stimulated PBMC cells; type: cell-based; conditions: Homo sapiens, assay (c)
Outline: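 Healthy-donor PBMCs, density-gradient isolated, stimulated on plates pre-coated with anti-CD3 (0.3 μg/mL) and anti-CD28 (3 μg/mL) antibodies, with compound, for 3 days under standard culture conditions. IC50 derived from the dose-response curve.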

PBMCs [3] = assay: Cell mitosis assay in PBMCs; type: cell-based; conditions: Homo sapiens, PBMC, 5 μg/mL
Outline: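 Human PBMCs from healthy donors, density-gradient isolated, stimulated with 2% PHA 48 h, then exposed 20 h to test compounds; demecolcine 0.1 μg/mL added 2 h before harvest. Fixed/permeabilised cells stained for phospho-histone H3 and propidium iodide; mitotic lymphocytes counted by flow cytometry.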

BDF1 mice = assay: TNBS-induced colitis in mice; type: in vivo; conditions: conducted over 2 days; vehicle corn oil/transcutol/maisine/cremophor ELP
Method: Non-fasted, 10-12 week old, male BDF1 mice are dosed by oral gavage twice daily with either vehicle (5 mL/kg), reference item (Budesonide 2.5 mg/kg) or test compound (1 or 5 mg/kg) one day before (Day −1) stimulation of the inflammatory response by treatment with 2,4,6-trinitrobenzenesulphonic acid (TNBS) (15 mg/mL in 50% ethanol/50% saline). On Day 0 of the study TNBS (200 μL) is administered intra-colonically via a plastic catheter with BID dosing of the vehicle, reference or test compound continuing for 2 or 4 days. During the study, animals are weighed every day and stool observations are made and recorded as a score, based on stool consistency. At the time of sacrifice on Day 2 (or Day 4), the large intestine is removed and the length and weight recorded. Sections of the colon are taken for histopathology scoring to determine disease severity.

[4] = Plasma pharmacokinetics in rats, single intravenous or oral administration; type: in vivo; conditions: male, Wistar, rat; for clearance: rats, intravenous 0.25 mg/kg
Method: Studies were conducted by Sai Life Sciences (Hinjewadi, Pune, India) to investigate the plasma pharmacokinetics and total colon tissue distribution of compounds of the invention. In particular, pharmacokinetic studies were carried out in: • male C57BL/6 mice, following a single oral administration; and • male Wistar rats following a single intravenous or oral administration.

[5] = system: Salmonella typhimurium TA98; assay: Bacterial reverse mutation screen, strain TA98; type: cell-based; conditions: presence or absence of S-9 mix; up to 1000 μg/plate analysable
Method: (§1) Studies were conducted by Sequani (Ledbury, Herefordshire, UK) to assess compounds of the invention for their ability to induce mutations in two histidine dependent auxotrophic mutants of Salmonella typhimurium, strains TA98 and TA100 in vitro.
(§2) The mutation screen was conducted using the plate incorporation method and was performed in both the presence and absence of S-9 mix (a liver post-mitochondrial fraction derived from the livers of Aroclor 1254 treated rats). The bacteria were exposed to test compounds dissolved in dimethylsulphoxide, which solvent was also used as the negative control. The dose levels used were 0.32, 1.6, 8, 40, 200, 1000 or 5000 μg/plate.
(§3) Precipitation was also noted in both strains at 1000 μg/plate in the presence and absence of S-9 mix.

[6] = system: Salmonella typhimurium TA100; assay: Bacterial reverse mutation screen, strain TA100; type: cell-based; conditions: presence or absence of S-9 mix; up to 1000 μg/plate analysable
Method: as §1, §2, §3

[7] = Hydrolytic stability study (DMSO/water 3:1, 60° C.); type: physicochemical
Method: Chemical stability of compounds of the invention was assessed in a mixture of DMSO and water (3:1) at a test compound concentration of 1 mg/mL
Agilent, Waters X-Select C18, 2.5 μm, 4.6×30 mm column, 4 min method, 5-95%
MeCN/water (0.1% formic acid).
Column Oven Temperature 40° C.
Sample Preparation • A 1.0 mg sample of test compound was dissolved in 750 μL of DMSO. Water (250 μL) was added slowly, ensuring no precipitation occurred.
Recording Stability • A 50 μL aliquot of the test solution was removed and analysed in duplicate by 5 μL HPLC injections. The peak area for the test compound was recorded following manual integration of the corresponding UV trace. • The test solution was heated to 60° C., with stirring, and 50 μL aliquots removed for HPLC analysis at 5 and 24 h timepoints.

[8] = read-out: IC50 Values for Inhibition of Cytokine Release PBMCs IL-8
[9] = read-out: IC50 Values for Inhibition of Cytokine Release PBMCs IFNγ
[10] = read-out: IC50 Values for Inhibition of Cytokine Release PBMCs IL-2
[11] = po, 5 mg/kg, read-out: Median plasma concentration

## COCCOCCOCCOc1cc(Nc2nccc(Oc3ccc(NC(=O)Nc4cc(C(C)(C)C)cc(NS(C)(=O)=O)c4OC)c4ccccc34)n2)cc(OC)c1 [Example 4, N-(5-(tert-Butyl)-2-methoxy-3-(3-(4-((2-((3-methoxy-5-(2-(2-(2-methoxyethoxy)ethoxy)-ethoxy)phenyl)amino)pyrimidin-4-yl)oxy)naphthalen-1-yl)ureido)phenyl)methanesulfonamide]
PBMCs [1]; [8]
  IC50: 1.4 nM
PBMCs [1]; read-out: IC50 Values for Inhibition of Cytokine Release PBMCs TNFα
  IC50: 0.7 nM
PBMCs [2]; [9]
  IC50: 4.2 nM
PBMCs [2]; [10]
  IC50: 40.5 nM
PBMCs [3]
  inhibition at 5 µg/mL: 43%
BDF1 mice
  activity in TNBS-induced colitis (histopathology analysis): displayed substantial activity
[4]
  clearance: 7.9 mL/min/kg
[5]
  increases in revertant colonies, strain TA98: no dose-related or statistically significant increases in revertant colonies
[6]
  increases in revertant colonies, strain TA100: no dose-related or statistically significant increases in revertant colonies
[7]; DMSO/water 3:1, 0 min
  % Parent Remaining: 100%

## C#Cc1cc(Nc2nccc(Oc3ccc(NC(=O)Nc4cc(C(C)(C)C)cc(NS(C)(=O)=O)c4OC)c4ccccc34)n2)cc(C(=O)NCCOCCOCCOC)c1 [Example 16, 3-((4-((4-(3-(5-(tert-Butyl)-2-methoxy-3-(methylsulfonamido)phenyl)ureido)naphthalen-1-yl)oxy)pyrimidin-2-yl)amino)-5-ethynyl-N-(2-(2-(2-methoxyethoxy)ethoxy)ethyl)benzamide]
PBMCs [1]; [8]
  IC50: 1.5 nM
PBMCs [2]; [9]
  IC50: 7.3 nM
PBMCs [2]; [10]
  IC50: 74 nM
PBMCs [3]
  inhibition at 5 µg/mL: 20.5%
BDF1 mice
  activity in TNBS-induced colitis (histopathology analysis): displayed substantial activity
[4]; [11]
  concentration at 0.25 h: 0 ng/mL
  concentration at 0.5 h: 0 ng/mL
  concentration at 1 h: 0 ng/mL
  concentration at 2 h: 0 ng/mL
  concentration at 4 h: 0 ng/mL
  concentration at 6 h: 0 ng/mL
  concentration at 8 h: 0 ng/mL
  concentration at 12 h: 0 ng/mL
  concentration at 24 h: 0 ng/mL
[4]
  clearance: 4.8 mL/min/kg
[5]
  increases in revertant colonies, strain TA98: no dose-related or statistically significant increases in revertant colonies
[6]
  increases in revertant colonies, strain TA100: no dose-related or statistically significant increases in revertant colonies
[7]; DMSO/water 3:1, 0 min
  % Parent Remaining: 100%
[7]; DMSO/water 3:1, 60° C., 300 min
  % Parent Remaining: 100%
[7]; DMSO/water 3:1, 60° C., 1440 min
  % Parent Remaining: 100%

## COc1cc(Nc2cc(Oc3ccc(NC(=O)Nc4cc(C(C)(C)C)cc(NS(C)(=O)=O)c4OC)c4ccccc34)ccn2)cc(C(=O)NCCN2CCOCC2)c1 [Example 27, 3-((4-((4-(3-(5-(tert-Butyl)-2-methoxy-3-(methylsulfonamido)phenyl)ureido)naphthalen-1-yl)oxy)pyridin-2-yl)amino)-5-methoxy-N-(2-morpholinoethyl)benzamide]
PBMCs [1]; [8]
  IC50: 1.9 nM
PBMCs [2]; [9]
  IC50: 11 nM
PBMCs [2]; [10]
  IC50: 46.3 nM
PBMCs [3]
  inhibition at 5 µg/mL: 49.8%
BDF1 mice
  activity in TNBS-induced colitis (histopathology analysis): displayed substantial activity
[4]
  clearance: 7.1 mL/min/kg
[5]
  increases in revertant colonies, strain TA98: no dose-related or statistically significant increases in revertant colonies
[6]
  increases in revertant colonies, strain TA100: no dose-related or statistically significant increases in revertant colonies
[7]; DMSO/water 3:1, 0 min
  % Parent Remaining: 100%
